Measurements taken from BindingDB's records for doi:10.1021/jm010801s (2002).

Target: Cathepsin K (Oryctolagus cuniculus) (UniProt P43236)
Test: Inhibition of recombinant rabbit Cathepsin K in a fluorescence assay

Chain of Cathepsin K (Oryctolagus cuniculus) (P43236 whole entry, looked up): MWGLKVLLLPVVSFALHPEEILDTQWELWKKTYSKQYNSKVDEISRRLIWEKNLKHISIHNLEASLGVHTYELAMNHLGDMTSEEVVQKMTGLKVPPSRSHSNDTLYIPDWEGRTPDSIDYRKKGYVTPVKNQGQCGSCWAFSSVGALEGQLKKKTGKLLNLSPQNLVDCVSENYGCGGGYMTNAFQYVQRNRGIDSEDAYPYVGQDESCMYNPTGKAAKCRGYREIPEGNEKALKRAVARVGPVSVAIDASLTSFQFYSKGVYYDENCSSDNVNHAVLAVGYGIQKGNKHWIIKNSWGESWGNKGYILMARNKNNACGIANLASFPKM

| SMILES | IC50 |
| --- | --- |
| COc1cccc(NCCNC(=O)[C@H](CC(C)C)NC(=O)OCc2ccccc2)c1 [{1-[2-(3-Methoxy-phenylamino)-ethylcarbamoyl]-3-methyl-butyl}-carbamic acid benzyl ester] | > 1 µM |
| CC(C)C[C@H](NC(=O)OCc1ccccc1)C(=O)NCCNc1ccc(Cl)cc1 [{1-[2-(4-Chloro-phenylamino)-ethylcarbamoyl]-3-methyl-butyl}-carbamic acid benzyl ester] | 0.35 µM |
| Cc1ccc(NCCNC(=O)[C@H](CC(C)C)NC(=O)OCc2ccccc2)cc1 [[3-Methyl-1-(2-p-tolylamino-ethylcarbamoyl)-butyl]-carbamic acid benzyl ester] | 0.19 µM |
| CC(C)C[C@H](NC(=O)OCc1ccccc1)C(=O)NCCNc1ccccc1 [[3-Methyl-1-(2-phenylamino-ethylcarbamoyl)-butyl]-carbamic acid benzyl ester] | 0.47 µM |
| CC(C)C[C@H](NC(=O)OCc1ccccc1)C(=O)NCCNc1cccc(Cl)c1 [{1-[2-(3-Chloro-phenylamino)-ethylcarbamoyl]-3-methyl-butyl}-carbamic acid benzyl ester] | > 1 µM |
| Cc1cccc(NCCNC(=O)[C@H](CC(C)C)NC(=O)OCc2ccccc2)c1 [[3-Methyl-1-(2-m-tolylamino-ethylcarbamoyl)-butyl]-carbamic acid benzyl ester] | 0.46 µM |
